Reference: ChEMBL document CHEMBL1148729, “Specific plant terpenoids and lignoids possess potent antiviral activities against severe acute respiratory syndrome coronavirus” (J Med Chem, 2007)

How the values were obtained:
SARS-CoV [1] = test: Inhibition of SARS coronavirus-induced cytopathogenicity in Vero E6 cells at 10 uM; type: functional; conditions: Severe acute respiratory syndrome-related coronavirus
SARS-CoV [2] = test: Inhibition of SARS coronavirus-induced cytopathogenicity in Vero E6 cells at 20 uM; type: functional; conditions: Severe acute respiratory syndrome-related coronavirus
[3] = Selectivity index, Ratio of CC50 for Vero E6 cells to EC50 for SARS coronavirus; type: functional
[4] = Cytotoxicity against Vero E6 cells by MTT assay; type: cell-based; conditions: chlorocebus sabaeus
SARS-CoV [5] = test: Inhibition of SARS virus-induced cytopathogenicity in Vero E6 cells at 3.3 uM; type: functional; conditions: Severe acute respiratory syndrome-related coronavirus
SARS-CoV [6] = test: Antiviral activity against SARS coronavirus in Vero E6 cells assessed as inhibition of viral replication by ELISA; type: functional, organism-based; conditions: Severe acute respiratory syndrome-related coronavirus
SARS-CoV [7] = test: Inhibition of SARS virus-induced cytopathogenicity in Vero E6 cells at 1 uM; type: functional; conditions: Severe acute respiratory syndrome-related coronavirus
Replicase polyprotein 1a = Replicase polyprotein 1a (Severe acute respiratory syndrome-related coronavirus, UniProt P0C6U8); test: Inhibition of SARS coronavirus 3CL protease

SMILES	inhibition at 10 µM (SARS-CoV [1]) [%]	inhibition at 20 µM (SARS-CoV [2]) [%]	Ratio CC50/EC50 [3]	CC50 [4] [µM]	inhibition at 3.3 µM (SARS-CoV [5]) [%]	EC50 (SARS-CoV [6]) [µM]	inhibition at 1 µM (SARS-CoV [7]) [%]	IC50 (Replicase polyprotein 1a) [µM]	Ki (Replicase polyprotein 1a) [µM]
COc1cc(C2c3cc(OC(=O)c4ccccc4)c(OC)cc3C[C@@H](CO)[C@@H]2CO)ccc1OC(=O)c1ccccc1 (stereo not given in full)	< 25	< 25							
CC(=O)Oc1cc2c(cc1C(C)C)C=C[C@H]1C(C)(C)[C@@H](OC(C)=O)CC[C@]21C	25	< 25	193	303	25	1.57			
CC(C)C1=C(O)C(=O)C2=C(C=C[C@H]3C(C)(C)CCC[C@]23C)C1=O	25	< 25	16.2	89.7		5.55			
CC(C)C1=C[C@]2(O)CC[C@H]3C(C)(C)CCC[C@]3(C)C2=CC1=O	< 25	< 25	>510	> 750	50	1.47			
COc1c(C(C)C)cc2c(c1O)[C@@]1(C)CCCC(C)(C)[C@@H]1C[C@@H]2O	< 25	< 25	111	127		1.15			
C[C@@H]1CC[C@H]2[C@@](C)(CO)[C@H]3C[C@@]12CC[C@@]3(C)O	25	< 25		> 750	50	> 10			
CC(C)c1ccc2c(c1)C(=O)C[C@H]1C(C)(C)CCC[C@]21C	< 25	< 25	76.3	305		4			
CC1=C[C@@H]2[C@@H](CC1)[C@](C)(O)CC[C@H]2C(C)C	25	< 25	17.3	76.8	25	4.44	50		
C=C(C)[C@@H]1CC[C@]2(C(=O)O)CC[C@]3(C)[C@H](CC[C@@H]4[C@@]5(C)CC[C@H](O)C(C)(C)[C@@H]5CC[C@]43C)[C@@H]12 [BETULINIC ACID]	25	< 25	<15	150	50	> 10		10	8.2
C=C(C)[C@@H]1CC[C@]2(C(=O)O)CC[C@]3(C)[C@H](CC[C@@H]4[C@@]5(C)CCC(=O)C(C)(C)[C@@H]5CC[C@]43C)[C@@H]12 [BETUNOLIC ACID]	< 25	< 25	180	112		0.63		> 100	
C=C[C@@]1(C)CC(=O)[C@]2(O)[C@@]3(C)[C@@H](O)CCC(C)(C)[C@@H]3[C@H](O)[C@H](OC(C)=O)[C@@]2(C)O1 [COLFORSIN]	25	< 25	89.8	674	50	7.5			
COc1c(C(C)C)cc2c(c1O)[C@@]1(C)CCCC(C)(C)[C@@H]1CC2=O [CRYPTOJAPONOL]	< 25	< 25	<7.9	78.5		> 10			
COc1cc(/C=C/C(=O)CC(=O)/C=C/c2ccc(O)c(OC)c2)ccc1O [CURCUMIN]	50	25		> 250		> 10		40	
CC(C)c1cc2c(cc1O)[C@@]1(C)CCCC(C)(C)[C@@H]1CC2 [FERRUGINOL]	< 25	< 25	58	80.4	25	1.39			
O=C1OC[C@H](Cc2ccc3c(c2)OCO3)[C@H]1Cc1ccc2c(c1)OCO2 [HINOKININ]	25	< 25		> 750	25	> 10	50	> 100	
C=CCc1ccc(O)c(-c2ccc(O)c(CC=C)c2)c1 [HONOKIOL]	< 25	< 25	13.7	88.9	25	6.5			
C=CCc1ccc(O)c(-c2cc(CC=C)ccc2O)c1 [MAGNOLOL]	< 25	< 25	18	68.3	50	3.8			
O=C(Nc1ccc([N+](=O)[O-])cc1Cl)c1cc(Cl)ccc1O [NICLOSAMIDE]	25	< 25	>221	22.1	25	< 0.1	50	40	
C=C1CC[C@@H]2[C@](C)(CCC[C@]2(C)C(=O)O)[C@H]1CCC1=CCOC1=O [PINUSOLIDIC ACID]	< 25	< 25	>159	> 750		4.71			
O=C1OC[C@H](Cc2ccc3c(c2)OCO3)/C1=C\c1ccc2c(c1)OCO2 [SAVININ]	< 25	< 25	>667	> 750		1.13		25	9.1
CC(C)c1cc2c(cc1O)[C@@]1(C)CCCC(C)(C)[C@@H]1CC2=O [SUGIOL]	< 25	< 25							
CC(C)[C@@H]1NC(=O)[C@H](C)OC(=O)[C@@H](C(C)C)NC(=O)[C@@H](C(C)C)OC(=O)[C@H](C(C)C)NC(=O)[C@H](C)OC(=O)[C@@H](C(C)C)NC(=O)[C@@H](C(C)C)OC(=O)[C@H](C(C)C)NC(=O)[C@H](C)OC(=O)[C@@H](C(C)C)NC(=O)[C@@H](C(C)C)OC1=O [VALINOMYCIN]	25	< 25	41.4	67.5	25	1.63	50		
